Where two headings read alike, the source gives them in different places.
How the values were obtained:
[1] = test system: NCI-H1975 (EGFR-L858R-T790M) cells; experiment: Inhibitory activity on proliferation of NCI-H1975 (EGFR-L858R-T790M) cells (CTG, 72 h); type: cell-based; conditions: Homo sapiens
Outline: (§1)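 Cells plated at 1000/well (NCI-H1975, RPMI1640+10% FBS) or 3000/well (A431, DMEM+10% FBS), dosed next day with compounds (0.1% DMSO final) for 72 h at 37 °C, 5% CO2. Viability by CTG luminescence, normalised to vehicle control; IC50 from nonlinear-regression dose-survival curves.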

A431 (EGFR-WT) cells = experiment: Inhibitory activity on proliferation of A431 (EGFR-WT) cells (CTG, 72 h); type: cell-based; conditions: Homo sapiens, A-431
Outline: as §1

[2] = test system: NCI-H1975 EGFR-L858R-T790M-C797S cells; experiment: Inhibitory activity on proliferation of NCI-H1975 EGFR-L858R-T790M-C797S cells (CellTiter-Glo, 72 h); type: cell-based; conditions: Homo sapiens
Protocol: NCI-H1975 EGFR-L858R-T790M-C797S cells were cultured in an incubator at 37° C. with 5% CO2, and the culture medium was RPMI1640+10% FBS+100 μg/mL hygromycin. The cells in the logarithmic phase were collected, and the cell suspension was adjusted to an appropriate concentration with a hygromycin-free culture medium, and then plated on a 96-well plate at a density of 1500 cells/well and a volume of 90 μL. 10 μL of the compounds at different concentrations were added, and a vehicle control group (cells plus DMSO) was provided, wherein the concentration of DMSO was 0.1%. The cell culture plate was cultured in an incubator at 37° C. with 5% CO2 for 72 hours. After the incubation was completed, according to operation instructions for a CellTiter-Glo kit (Promega, G7572), 50 μL of CTG solution, which was already pre-melted and equilibrated to room temperature, was added to each well, and the mixtures were uniformly mixed for 2 min using a microplate shaker. The plate was placed at room temperature for 10 min, and then […] signal values were measured using a microplate reader (Envision 2104). […] was processed based on formula (2), and using the GraphPad Prism 5.0 software and nonlinear regression model, S-shaped dose-survival curves were plotted, and IC50 values were calculated. wherein Vsample was the readout of the drug-treated group, and Vvehicle control was the readout of the control group.

[3] = Pharmacokinetic test in mice; type: in vivo; conditions: male, ICR, mouse, po, administration i.g. (10 mg/kg), plasma
Outline: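 Male ICR mice (20-25 g), fasted 12-14 h before dosing and fed 4 h after, received a single intravenous or intragastric dose. Orbital plasma sampled from 0 to 24 h (5 min-24 h points); LC-MS/MS quantitation for PK parameters and bioavailability.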

[4] = read-out: IC50 (value in brackets)

| IC50 ([1]; read-out: IC50 (class symbol)) | IC50 [1, 4] | IC50 (A431 (EGFR-WT) cells) | IC50 ([2]; read-out: IC50 (class symbol)) | IC50 ([2]; read-out: IC50 (value)) | AUC(0-t) [3] | AUC [3] | half-life [3] | Compound |
| --- | --- | --- | --- | --- | --- | --- | --- | --- |
| < 100 nM | 15 nM | ≥ 10000 nM | < 200 nM | 27 nM |  |  |  | COc1cc(N2CCC(N3CCN(CC4CCN(c5ccc6c(c5)C(=O)N(C5CCC(=O)NC5=O)C6=O)C4)CC3)CC2)c(-c2cnn(C)c2)cc1Nc1ncc(Cl)c(Nc2ccc3nccnc3c2P(C)(C)=O)n1 (centres unmarked) [Compound 6, 5-(3-((4-(1-(4-((5-chloro-4-((5-(dimethylphosphoryl)quinoxalin-6-yl)amino)pyrimidin-2-yl)amino)-5-methoxy-2-(1-methyl-1H-pyrazol-4-yl)phenyl)piperidin-4-yl)piperazin-1-yl)methyl)pyrrolidin-1-yl)-2-(2,6-dioxopiperidin-3-yl)isoindoline-1,3-dione] |
| < 100 nM | 14 nM |  | < 200 nM | 39 nM |  |  |  | COc1cc(N2CCC3(CCN(CC4CCN(c5ccc6c(c5)C(=O)N(C5CCC(=O)NC5=O)C6=O)CC4)CC3)CC2)c(-c2cnn(C)c2)cc1Nc1ncc(Cl)c(Nc2ccc3nccnc3c2P(C)(C)=O)n1 (centres unmarked) [Compound 9, 5-(4-((9-(4-((5-chloro-4-((5-(dimethylphosphoryl)quinoxalin-6-yl)amino)pyrimidin-2-yl)amino)-5-methoxy-2-(1-methyl-1H-pyrazol-4-yl)phenyl)-3,9-diazaspiro[5.5]undecan-3-yl)methyl)piperidin-1-yl)-2-(2,6-dioxopiperidin-3-yl)isoindoline-1,3-dione] |
| < 100 nM | 12 nM | ≥ 10000 nM | < 200 nM | 24 nM |  |  |  | COc1cc(N2CCC(N3CCN(CC4CCN(c5ccc6c(c5)C(=O)N(C5CCC(=O)NC5=O)C6=O)CC4)CC3)CC2)c(-c2cnn(C)c2)cc1Nc1ncc(Br)c(Nc2ccc3nccnc3c2P(C)(C)=O)n1 (centres unmarked) [Compound 18, 5-(4-((4-(1-(4-((5-bromo-4-((5-(dimethylphosphoryl)quinoxalin-6-yl)amino)pyrimidin-2-yl)amino)-5-methoxy-2-(1-methyl-1H-pyrazol-4-yl)phenyl)piperidin-4-yl)piperazin-1-yl)methyl)piperidin-1-yl)-2-(2,6-dioxopiperidin-3-yl)isoindoline-1,3-dione] |
| 100 to 500 nM | 105 nM | ≥ 10000 nM | 200 to 500 nM | 364 nM | 59200 ng·h/mL |  |  | COc1cc(N2CCC(CN3CCN(c4ccc5c(c4)C(=O)N(C4CCC(=O)NC4=O)C5=O)CC3)CC2)c(-c2cnn(C)c2)cc1Nc1ncc(Br)c(Nc2ccc(-c3ccccc3)cc2P(C)(C)=O)n1 (centres unmarked) [Compound 45, 5-(4-((1-(4-((5-bromo-4-((3-(dimethylphosphoryl)-[1,1′-biphenyl]-4-yl)amino)pyrimidin-2-yl)amino)-5-methoxy-2-(1-methyl-1H-pyrazol-4-yl)phenyl)piperidin-4-yl)methyl)piperazin-1-yl)-2-(2,6-dioxopiperidin-3-yl)isoindoline-1,3-dione] |
| 100 to 500 nM | 110 nM | ≥ 10000 nM | < 200 nM | 72 nM | 30600 ng·h/mL |  |  | COc1cc(N2CCC(CN3CCC4(CC3)CCN(c3cc5c(cc3F)C(=O)N(C3CCC(=O)NC3=O)C5=O)CC4)CC2)c(-c2cnn(C)c2)cc1Nc1ncc(Br)c(Nc2ccc(-c3ccccc3)cc2P(C)(C)=O)n1 (centres unmarked) [Compound 47, 5-(9-((1-(4-((5-bromo-4-((3-(dimethylphosphoryl)-[1,1′-biphenyl]-4-yl)amino)pyrimidin-2-yl)amino)-5-methoxy-2-(1-methyl-1H-pyrazol-4-yl)phenyl)piperidin-4-yl)methyl)-3,9-diazaspiro[5.5]undecan-3-yl)-2-(2,6-dioxopiperidin-3-yl)-6-fluoroisoindoline-1,3-dione] |
| 100 to 500 nM | 129 nM | ≥ 10000 nM | < 200 nM | 136 nM | 62300 ng·h/mL |  |  | COc1cc(N2CCC(CN3CCN(c4ccc5c(c4)C(=O)N(C4CCC(=O)NC4=O)C5=O)CC3)CC2)c(-c2cnn(C)c2)cc1Nc1ncc(Cl)c(Nc2ccc(-c3ccccc3)cc2P(C)(C)=O)n1 (centres unmarked) [Compound 65, 5-(4-((1-(4-((5-chloro-4-((3-(dimethylphosphoryl)-[1,1′-biphenyl]-4-yl)amino)pyrimidin-2-yl)amino)-5-methoxy-2-(1-methyl-1H-pyrazol-4-yl)phenyl)piperidin-4-yl)methyl)piperazin-1-yl)-2-(2,6-dioxopiperidin-3-yl)isoindoline-1,3-dione] |
| 100 to 500 nM | 101 nM | ≥ 10000 nM |  |  |  | 69800 ng·h/mL | 10.9 h | COc1cc(N2CCN(c3ccc4c(c3)C(=O)N(C3CCC(=O)NC3=O)C4=O)CC2)c(-c2cnn(C)c2)cc1Nc1ncc(Cl)c(Nc2ccc(-c3ccccc3)cc2P(C)(C)=O)n1 (centres unmarked) [Compound 98, 5-(4-(4-((5-chloro-4-((3-(dimethylphosphoryl)-[1,1′-biphenyl]-4-yl)amino)pyrimidin-2-yl)amino)-5-methoxy-2-(1-methyl-1H-pyrazol-4-yl)phenyl)piperazin-1-yl)-2-(2,6-dioxopiperidin-3-yl)isoindoline-1,3-dione] |
| 100 to 500 nM | 107 nM | ≥ 10000 nM | < 200 nM | 152 nM |  | 118000 ng·h/mL | 12.7 h | COc1cc(N2CCC(CN3CCN(c4ccc5c(c4)C(=O)N(C4CCC(=O)NC4=O)C5=O)CC3)CC2)c(-c2cnn(C)c2)cc1Nc1ncc(Br)c(Nc2ccc(-c3ccccc3F)cc2P(C)(C)=O)n1 (centres unmarked) [Compound 101, 5-(4-((1-(4-((5-bromo-4-((3-(dimethylphosphoryl)-2′-fluoro-[1,1′-biphenyl]-4-yl)amino)pyrimidin-2-yl)amino)-5-methoxy-2-(1-methyl-1H-pyrazol-4-yl)phenyl)piperidin-4-yl)methyl)piperazin-1-yl)-2-(2,6-dioxopiperidin-3-yl)isoindoline-1,3-dione] |
| < 100 nM | 76 nM | ≥ 10000 nM |  |  |  | 93100 ng·h/mL | 6.68 h | COc1cc(N2CCC3(CCN(c4ccc5c(c4)C(=O)N(C4CCC(=O)NC4=O)C5=O)CC3)CC2)c(-c2cnn(C)c2)cc1Nc1ncc(Br)c(Nc2ccc(F)cc2P(C)(C)=O)n1 (centres unmarked) [Compound 163, 5-(9-(4-((5-bromo-4-((2-(dimethylphosphoryl)-4-fluorophenyl)amino)pyrimidin-2-yl)amino)-5-methoxy-2-(1-methyl-1H-pyrazol-4-yl)phenyl)-3,9-diazaspiro[5.5]undecan-3-yl)-2-(2,6-dioxopiperidin-3-yl)isoindoline-1,3-dione] |
| 100 to 500 nM | 549 nM |  |  | 1380 nM |  | 563 ng·h/mL | 1.54 h | COc1cc(N2CCC(N3CCN(CCOCC#Cc4cccc5c4CN(C4CCC(=O)NC4=O)C5=O)CC3)CC2)ccc1Nc1ncc(Cl)c(Nc2ccccc2P(C)(C)=O)n1 (centres unmarked) [Control compound A, reference compound] |
| 100 to 500 nM | 658 nM |  | 500 to 1000 nM | 704 nM |  | 2090 ng·h/mL | 1.23 h | COc1cc(N2CCC(N3CCN(C(=O)CNc4cccc5c4C(=O)N(C4CCC(=O)NC4=O)C5=O)CC3)CC2)ccc1Nc1ncc(Cl)c(Nc2ccccc2P(C)(C)=O)n1 (centres unmarked) [Control compound B, reference compound] |
| < 100 nM | 20 nM | ≥ 10000 nM | < 200 nM | 30 nM |  |  |  | COc1cc(N2CCC(N3CCN(C4CC5(CCN(c6ccc7c(c6)C(=O)N(C6CCC(=O)NC6=O)C7=O)CC5)C4)CC3)CC2)c(-c2cnn(C)c2)cc1Nc1ncc(Cl)c(Nc2ccc3nccnc3c2P(C)(C)=O)n1 (centres unmarked) [Trifluoroacetate of compound 7, 5-(2-(4-(1-(4-((5-chloro-4-((5-(dimethylphosphoryl)quinoxalin-6-yl)amino)pyrimidin-2-yl)amino)-5-methoxy-2-(1-methyl-1H-pyrazol-4-yl)phenyl)piperidin-4-yl)piperazin-1-yl)-7-azaspiro[3.5]nonan-7-yl)-2-(2,6-dioxopiperidin-3-yl)isoindoline-1,3-dione] |

— patent US20240269298A1, “PHOSPHONYL DERIVATIVE, AND COMPOSITION AND PHARMACEUTICAL APPLICATION THEREOF” (XIZANG HAISCO PHARMACEUTICAL CO., LTD., priority 2021, published 2024)
